Assays:
[1] = target: T1, BACE (Homo sapiens, UniProt P56817); test: Isothermal titration calorimetry (ITC) of BACE and peptides; format: binding; design: The cDNA for the catalytic domain of human BACE (residues 1-460) was PCR-amplified; human IgG1 heavy chain (C, cleaved yes); thrombin cleavage site (C); made in house; host or cells: CHO DG44 cells (stably transfected, secreted)
Method: Isothermal titration calorimetry was performed to determine quantitatively the binding affinities of BMS-561877 and BMS-561871 for β-secretase. Recombinant human BACE was expressed as a fusion protein with human IgG1, in Chinese hamster ovary (CHO) cells (Vassar et al., (1999) Science 286:735-741 and Haniu et al., (2000) J. Biol. Chem. 275:21099-21106).
This construct, referred to as BACE-T-IgG, also contained a protease cleavage site between BACE and IgG1, sensitive to human α-thrombin. The cDNA for the catalytic domain of human BACE (residues 1-460) was PCR-amplified and subcloned into the mammalian expression vector pTV1.6, upstream of a thrombin cleavage site linked to cDNA encoding human IgG1 heavy chain. The vector construct, pTV1.6-BACE-T-IgG, was used to produce stably transfected DHFR-deficient CHO DG44 cells, which were then scaled up using methotrexate for selection.
The clarified growth media harvested from CHO DG44 cells which contained the fusion protein was loaded onto a rProtein A SEPHAROSE™ column (5×20 cm, Amersham Pharmacia Biotech) using a peristaltic pump at 4° C., at 4 mL/min. The column was washed with Dulbecco's PBS, pH 7.1, 4 mL/min, until baseline absorbance at 280 nm was observed. BACE-T-IgG was eluted from the resin with 0.10 M citrate, pH 3.0, into tubes containing 0.5 volumes of 4 M Tris, pH 8. Fractions containing the fusion protein were dialyzed extensively using 12,000-14,000 […] MWCO membrane (UltraPURE, GIBCO BRL) against PBS, pH 7.1, at 4° C. The protein was sterile filtered (0.22 μm) and stored at 4° C.
To generate BACE for binding experiments, the fusion protein BACE-T-IgG was treated with human α-thrombin (Enzyme Research Labs, South Bend, Ind.) at a ratio of 1:500 (mass:mass) in Dulbecco's PBS, pH 7.1, at 37° C. for 2 hr. Human α-thrombin was removed by passing the sample over Benzamidine SEPHAROSE™ 6B column (Amersham Pharmacia Biotech). The cleaved IgG1 was captured by passing the solution over a rProtein A SEPHAROSE™ (Amersham Pharmacia Biotech) column, whereas the BACE passed through this column. The protein sample was further purified by concentrating to 10-15 mg/mL using a centrifugation concentration unit (Millipore Ultrafree 10 kDa MWCO, 15 mL unit) and loading onto a SUPERDEX™ 200 PC 3.2/30 gel-filtration column (Amersham Pharmacia Biotech). The column was run at 3 mL/min with Dulbecco's PBS, pH 7.1, at room temperature. Fractions containing BACE were combined, sterile filtered (0.22 μm) and stored at 4° C.
BACE was prepared for isothermal titrating calorimetry by extensive dialysis against fresh buffer at 4° C. using 12,000-14,000 […] MWCO dialysis membrane (UltraPURE, GIBCO BRL). […] Following 2 buffer changes, the protein was removed from the membrane and centrifuged (5 min×4000 g, 4° C.) to remove particulates. The protein was stored at 4° C. until needed for the calorimetry experiments. The protein concentration was determined by 10-fold dilution into the same buffer, and measuring the UV absorbance at 280 nm in a 1.00 cm pathlength cell (calculated value=1.22 AU=1.00 mg/mL protein, based on mean glycosylated molecular weight=53.5 kDa, and given amino acid composition). Final concentrations used in isothermal titrating calorimetry were typically 5.0 μM, containing a final concentration of 0.5% v/v DMSO.
Peptides were dissolved in the buffer dialysate from protein dialysis, and equal volumes of DMSO were added to each (0.5% v/v DMSO). The pH values of the solutions were adjusted as necessary to equal that of the buffer dialysate and protein sample within 0.01 pH units.

[2] = target: T1, BACE; test: Competitive binding assay, displacement of labeled EBP from BACE, fluorescence anisotropy; design: The cDNA for the catalytic domain of human BACE (residues 1-460) was PCR-amplified; human IgG1 heavy chain (C, cleaved yes); thrombin cleavage site (C); made in house; host or cells: CHO DG44 cells (stably transfected, secreted); conditions: displacement of Molecule X, read-out: binding constant (Kd) of unlabeled peptide by competition
Method: The competitive binding assay was carried out at pH 7.1 (PBS buffer) or pH 4.5 (50 mM acetate buffer). The fluorescence anisotropy was measured at 25° C. in an AVIV fluorometer. The excitation and emission wavelengths were set to 495 and 519 nm, respectively. The excitation and emission slit widths were 4 and 10 nm, respectively.
The initial anisotropy value was measured. A concentrated unlabeled peptide or compound stock was titrated into the above solution of EBP and BACE. The final concentration of unlabeled peptide or compound ranges from 20 to 20000 nM. After each addition, the solution was mixed for 10 times with a pipettor. The fluorescence anisotropy was averaged over a 5 minute period.
The change in anisotropy was converted to fractional occupancy based on the r0 and rb obtained from the binding assay. The fractional occupancy was then plotted against the concentration of the competing peptide or compound. (see, for example, FIG. 6) The Kd of the competing ligand was calculated from curve fitting using the program […]™ (Synergy Software, Reading, Pa.). The equation used to fit the competition data is identical to equation 4 in Lai et al., (2000) Arch. Biochem. Biophys. 381:278-284.
The truncated unlabeled peptides were screened at a single concentration of 10 μM at pH 4.5. The anisotropy values detected with Molecule X in the absence of inhibitor, i.e., truncated unlabeled peptide (ra) and in the presence of the inhibitor (rb) and the labeled peptide alone (r0) were used to calculate the percent of inhibition: 100 (ra-rb)/(ra-r0). The percent of inhibition was compared among the truncated peptides.

[3] = pH 5.3, 37° C., sample cell: CHO BACE
[4] = pH 5.3, 37° C., sample cell: CHO BACE: OM99-2 (10-fold excess added first)

T1 sequence (P56817 46-460 limits assumed): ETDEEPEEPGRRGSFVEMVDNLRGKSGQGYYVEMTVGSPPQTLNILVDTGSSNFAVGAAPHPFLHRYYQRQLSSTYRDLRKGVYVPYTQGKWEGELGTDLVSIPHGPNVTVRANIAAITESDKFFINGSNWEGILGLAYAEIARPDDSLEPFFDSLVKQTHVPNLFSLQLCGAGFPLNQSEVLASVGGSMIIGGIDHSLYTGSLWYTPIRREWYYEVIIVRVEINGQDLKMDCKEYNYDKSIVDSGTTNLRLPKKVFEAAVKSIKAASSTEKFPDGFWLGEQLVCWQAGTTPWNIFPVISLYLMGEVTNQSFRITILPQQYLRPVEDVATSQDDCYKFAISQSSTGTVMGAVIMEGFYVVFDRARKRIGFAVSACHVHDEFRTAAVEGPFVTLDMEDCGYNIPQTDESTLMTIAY

Ac-NLTTYPYFIPLP-OH [BMS-561871]
KA ([1]; 25° C., Dulbecco's PBS, pH 7.1): 1.65e+07 M⁻¹
Kd ([1]; 25° C., Dulbecco's PBS, pH 7.1): 61 nM
n (binding stoichiometry) ([1]; 25° C., Dulbecco's PBS, pH 7.1): 1.03
ΔH ([1]; 25° C., Dulbecco's PBS, pH 7.1): -12.9 kcal/mol
Kd [1, 3]: 380 nM
T(dS) [1, 3]: -6.8 kcal/mol
ΔG [1, 3]: -9.1 kcal/mol
ΔH [1, 3]: -15.9 kcal/mol
Kd [1, 4]: 280 nM
T(dS) [1, 4]: -5.7 kcal/mol
ΔG [1, 4]: -9.3 kcal/mol
ΔH [1, 4]: -15.0 kcal/mol
Kd ([2]; pH 4.5): 1070 nM
Kd ([2]; pH 7.1): 84 nM

Source: patent publication US7314726B2, “Beta secretase exosite binding peptides and methods for identifying beta secretase modulators” (Bristol-Myers Squibb Company, priority 2002, dated 2008)
